{
  "source": "patent US6040149A",
  "about": "“Assay for identifying agents which act on the ceramide-activated protein kinase, kinase suppressor of ras, and methods of using said agents” (priority 1997, dated 2000)",
  "key": {"[1]": {"tested_on": "ceramide-activated protein kinase", "assay": "EGFR peptide phosphorylation by kinase in A-431 microsomal membranes / postnuclear supernatant", "format": "biochemical, human (A-431 epidermoid carcinoma cells)", "conditions": "words", "method": "Kinetics of ^32 Pi incorporation into the EGFR peptide. […] The reaction was initiated by addition of 50 μl of [γ-^32 P]ATP (150 μM final concentration) and terminated by addition of 50 μl of 0.5 M ATP in 90% (vol/vol) formic acid. Samples were spotted on phosphocellulose paper, washed with 1 M acetic acid/4 mM pyrophosphate, and ^32 P incorporation was measured by liquid-scintillation counting, as described. A boiled protein blank was subtracted from each data value. The data (means) represent duplicate samples from one of two similar experiments. […]\nKinetics of ceramide-induced ^32 Pi incorporation into EGFR peptide. Peptide phosphorylation was done as described in FIG. 2 in the absence (.smallcircle.) or presence (.circle-solid.) of 0.5 μM C8 -ceramide. Phosphorylated peptide was resolved by HPLC. Values (means) represent data from three experiments.\nConcentration-dependence of ceramide-induced ^32 Pi incorporation into EGFR peptide. Peptide phosphorylation reactions were done as described for FIG. 2, for 2 minutes, using various concentrations of ceramide (0.001-3 μM). Phosphorylated peptide was resolved by HPLC. Values (means) represent data from three experiments. […]\nPhosphorylation was initiated at 22° C. by addition of 50 μl of [γ-^32 P] ATP (150 μM final concentration; 4000 dpm/pmol). For studies with lipid activators, ceramide and other lipids were dried under N2 and resuspended in the kinase assay buffer by bath sonication for 2 minutes at 37° C.\nPhosphorylated peptide was quantified by two separate methods. For initial studies, samples were spotted on phosphocellulose paper, washed in 1 M acetic acid/4 mM pyrophosphate and subjected to liquid scintillation counting, according to methods well known to those skilled in the art. Values obtained from a boiled blank or a sample lacking peptide were subtracted from each determination. Alternatively, HPLC was done according to methods well known to those skilled in the art. For these studies, samples were first applied to a C18 Sep-Pak cartridge and eluted with 99.9% acetonitrile/0.1% trifluoroacetic acid. The eluates were lyophilized, resuspended in 6 M guanidine hydrochloride/200 mM Tris, pH 8.5 and applied to a C18 reverse-phase column (Dynamax, 4.6 mm i.d., Rainin, Woburn, Mass.). The peptide was eluted with a linear gradient (1% per minute) of acetonitrile at a flow rate of 1 ml/minute and was detected by measuring the Cerenkov radiation associated with 1-ml fractions."}, "[2]": {"tested_on": "ceramide-activated protein kinase"}, "EL-4 cells": {"tested_on": "EL-4 cells", "assay": "Sphingomyelin and ceramide levels in intact EL-4 cells", "format": "cell-based, murine", "conditions": "maximally effective concentrations (n=5)", "method": "IL-1β effects on sphingomyelin levels in EL4 cells. Time course (A) and dose response (B). Cells were grown to growth arrest (1-1.5×10^6 cells ml^-1) in DME/Ham's F12 medium (1:1, v/v) containing 10% horse serum and for 48 hours [^3 H]choline (1 μCi ml^-1). On the day of an experiment, cells were resuspended back into the same medium at 10×10^6 cells ml^-1 and stimulated with 40 ng ml^-1 IL-1β for the indicated times (A) or for 30 minutes with increasing concentrations of IL-1β (B). Human IL-1β may be obtained using methods well known to those skilled in the art. Reactions were terminated with CHCl3 :CH3 OH:HCl (100:100:1) containing 10 mM EDTA (82). Lipids in the organic phase extract were dried under N2 and subjected to mild alkaline hydrolysis (0.1 M methanolic KOH for 1 hour at 37° C.) to remove glycerophospholipids. Sphingomyelin was resolved by thin-layer chromatography (TLC) using CHCl3 :CH3 OH:CH3 COOH:H2 O (60:30:8:5) as solvent, identified by iodine vapor staining, and quantified by liquid scintillation spectrometry. As previously reported, the use of [^3 H]choline as a measure of sphingomyelin content was validated by simultaneous phospholipid phosphorus measurements. Each value represents the mean±SEM of triplicate determinations from four experiments in (A), and one representative of four similar studies performed in triplicate in (B).\nEffect of IL-1β on ceramide levels in EL-4 cells. Cells were stimulated as in FIG. 12 with IL-1β (40 ng ml^-1) and ceramide contained within the organic phase extract quantified enzymatically using the E. coli diacylglycerol kinase reaction. Lipids were resolved by TLC using CHCl3 :CH3 OH:CH3 COOH (65/15/5) as solvent, autoradiographed and quantified by liquid scintillation spectrometry. Each value represents the mean±SEM of triplicate determinations from 10 experiments.\nThe murine thymoma EL-4 cell line is a well-defined IL-1 responsive cell line that expresses functional IL-1 receptors. Upon stimulation with IL-1, these cells up-regulate the IL-2 receptor and secrete IL-2 [62]. Initial studies were designed to investigate the effects of IL-1β on cellular sphingomyelin content. Cells, grown in Dulbecco's Modified Eagle's (DME)/Ham's F-12 medium containing 10% horse serum and [^3 H]choline (1 μCi ml^-1), were resuspended back into the same medium at 10×10^6 cells ml^-1 and stimulated with IL-1β. IL-1β is commercially available."}, "KSR": {"biological_target": "T1, KSR (Mus musculus, UniProt Q61097)", "T1 sequence (Q61097 1-873)": "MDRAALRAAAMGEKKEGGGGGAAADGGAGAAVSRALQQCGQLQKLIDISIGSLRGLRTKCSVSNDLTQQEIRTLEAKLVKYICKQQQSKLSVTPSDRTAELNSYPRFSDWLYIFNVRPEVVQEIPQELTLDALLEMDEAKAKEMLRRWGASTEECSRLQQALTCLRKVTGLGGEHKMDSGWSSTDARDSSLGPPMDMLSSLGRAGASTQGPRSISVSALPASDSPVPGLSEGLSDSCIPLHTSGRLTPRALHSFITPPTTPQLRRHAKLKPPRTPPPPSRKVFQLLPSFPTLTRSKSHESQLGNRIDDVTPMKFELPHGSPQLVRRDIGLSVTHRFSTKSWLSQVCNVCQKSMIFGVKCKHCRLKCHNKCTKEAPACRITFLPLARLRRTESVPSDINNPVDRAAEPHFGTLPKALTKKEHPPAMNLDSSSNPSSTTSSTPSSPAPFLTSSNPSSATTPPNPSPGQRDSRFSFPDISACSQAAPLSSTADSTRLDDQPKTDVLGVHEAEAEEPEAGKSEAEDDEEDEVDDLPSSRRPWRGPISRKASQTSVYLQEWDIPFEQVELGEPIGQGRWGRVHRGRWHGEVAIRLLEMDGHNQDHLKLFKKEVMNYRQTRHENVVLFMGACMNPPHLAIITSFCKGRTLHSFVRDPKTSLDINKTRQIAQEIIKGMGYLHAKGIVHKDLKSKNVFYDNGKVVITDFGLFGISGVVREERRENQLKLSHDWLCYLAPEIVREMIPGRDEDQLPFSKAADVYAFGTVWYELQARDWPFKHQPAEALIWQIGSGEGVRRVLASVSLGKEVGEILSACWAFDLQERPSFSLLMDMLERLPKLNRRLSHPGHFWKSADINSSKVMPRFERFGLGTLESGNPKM", "assay": "KSR activity toward Raf-1 peptides in vitro", "format": "biochemical, mouse (KSR immunoprecipitated from COS-7 cells)", "set-up": "Raf-1 peptides as substrate", "conditions": "for KSR activity towards substrate peptide: 30 nM ceramide, 5 min", "method": "The wild type peptide contains eight potential phosphorylation sites (shown in bold). Substitution of alanines and glycines for serines and threonines generated one peptide (TTLP-peptide) containing only two potential phosphorylation sites (Thr^268,269) and another peptide (AALP-peptide) with no potential phosphorylation sites.\nFIG. 28A--Flag-tagged KSR was immunoprecipitated from 0.2 mg COS-7 lysate, and assayed with TTLP- or AALP-peptides in the presence of 30 nM ceramide (Avanti) or diluent (DMSO). Background counts per minute (cpm) derived from samples incubated with the AALP-peptide which contains no phosphorylation sites were subtracted from all points. Background cpm always represented less than 25% of the untreated total.\nFIG. 28B--Flag-tagged KSR immunoprecipitated from 0.2 mg COS-7 lysate was assayed with TTLP- or AALP-peptides in the presence of ceramide or diluent for 45 min as described in FIG. 7A.\nFIG. 28C--Flag-tagged KSR was immunoprecipitated from 0.15 mg COS-7 lysate and assayed with TTLP- or AALP-peptides for 20 min in the presence of 30 nM of the indicated lipid second messengers as described in FIG. 28A (AA: arachidonic acid; LPA: lyso phosphatidic acid; PMA: phorbol 12-myristate 13-acetate; DAG: 1,2-diacylglycerol).\nKSR-bound beads were incubated with reaction buffer B plus 10 mM MnCl2, 5 μM ATP and [γ-^32 P]ATP at 22° C. for the period of time indicated in the presence of 0.3 mM synthetic Raf-peptide or substrate peptides specific for other Ser/Thr protein kinases. […] (SEQ ID NO.3). Substitution of glycines and alanines for serines and threonines generated one peptide (termed TTLP-peptide) containing only two potential phosphorylation sites at Thr^268,269 (in bold), […] (SEQ ID NO. 24), and another peptide (termed AALP-peptide; SEQ ID No.6) with no potential phosphorylation sites, […] (SEQ ID No.25). The amino acid sequences of substrate peptides specific for other protein kinases (Joseph et al., 1993) are: […] (SEQ ID NO.26) (PKA); […] (SEQ ID NO.27) (S6 kinase); […] (SEQ ID NO.28)(CK II); […] (SEQ ID NO.29) (CaM kinase II); and […] (SEQ ID NO.30) (PKC). […] Substrate peptides for PKA and PKC were from Sigma (St. Louis, Mo.). The reaction was stopped by addition of a stop solution containing 0.5 M ATP in 90% formic acid. The beads were removed by centrifugation at 5000×g for 2 min and the supernatant was loaded on P81 Whatman filter paper. The filter was air dried and washed in 4 mM Na2 H2 P2 O7, 1 mM acetic acid for one hour. The filter was baked at 90° C. for 10 min and quantified by Cerenkov counting using a Beckman LS 5000TD scintillation counter. In some experiments, samples were separated by C18 reverse-phase chromatography on HPLC (Mathias et al., 1991) to verify the results of the filter assay. Virtually identical results were obtained with both methods."}},
  "note": "Like-named read-outs stand apart in the source and are kept apart here.",
  "data": [
    {"molecule": "CCCCCCCCCCCCC/C=C/[C@@H](O)[C@H](CO)NC(=O)CCCCCCC", "note": "[C8-ceramide, N-octanoylsphingosine]", "values": [
      {"measurement": "effect on EGFR peptide phosphorylation", "setting": "[1]", "value": "similarly effective"},
      {"measurement": "maximal kinase activity, fold of control", "setting": "[2]; 10 μM C8-cer added to medium", "value": "1.5 fold of control"}
    ]},
    {"molecule": "CNC[C@H](O)c1ccc(O)c(O)c1", "note": "[epinephrine]", "values": [
      {"measurement": "ceramide response", "setting": "EL-4 cells", "value": "failed to elicit a ceramide response"}
    ]},
    {"molecule": "CCCCCCCCCCCCCCCC(=O)O", "note": "[palmitic acid]", "values": [
      {"measurement": "effect on EGFR peptide phosphorylation", "setting": "[1]", "value": "failed to increase EGFR peptide phosphorylation"}
    ]},
    {"molecule": "CC1=C(/C=C/C(C)=C/C=C/C(C)=C/C(=O)O)C(C)(C)CCC1", "note": "[retinoic acid]", "values": [
      {"measurement": "effect on kinase activity in membranes of stimulated HL-60 cells", "setting": "[2]; cholera toxin 10 nM, retinoic acid 0.5 μM, butyrate 0.5 mM", "value": "not stimulated"}
    ]},
    {"molecule": "GRGLSLSR [PKA substrate peptide]", "values": [
      {"measurement": "KSR activity towards substrate peptide", "setting": "KSR", "value": "minimal activity"}
    ]},
    {"molecule": "LSSLRASTSKSGGQK [S6 kinase substrate peptide]", "values": [
      {"measurement": "KSR activity towards substrate peptide", "setting": "KSR", "value": "minimal activity"}
    ]},
    {"molecule": "PLARTLSVAGLPGK [CaM kinase II substrate peptide]", "values": [
      {"measurement": "KSR activity towards substrate peptide", "setting": "KSR", "value": "minimal activity"}
    ]},
    {"molecule": "RQRGAGAPNVHMVGAALPVDGRMIE [AALP-peptide]", "values": [
      {"measurement": "phosphorylation of peptide by KSR", "setting": "KSR", "value": "negligible"}
    ]},
    {"molecule": "RQRGAGAPNVHMVGTTLPVDGRMIE [TTLP-peptide]", "values": [
      {"measurement": "phosphorylation of peptide by KSR", "setting": "KSR", "value": "same extent"}
    ]},
    {"molecule": "RRREEETEEE [CK II substrate peptide]", "values": [
      {"measurement": "KSR activity towards substrate peptide", "setting": "KSR", "value": "minimal activity"}
    ]},
    {"molecule": "VRKRTLRRL [PKC substrate peptide]", "values": [
      {"measurement": "KSR activity towards substrate peptide", "setting": "KSR", "value": "minimal activity"}
    ]},
    {"molecule": "cholera toxin", "values": [
      {"measurement": "effect on kinase activity in membranes of stimulated HL-60 cells", "setting": "[2]", "value": "not stimulated"}
    ]},
    {"molecule": "concanavalin A", "values": [
      {"measurement": "ceramide response", "setting": "EL-4 cells", "value": "failed to elicit a ceramide response"}
    ]},
    {"molecule": "dihydroceramide", "values": [
      {"measurement": "activation of KSR", "setting": "KSR", "value": "fail to activate KSR"}
    ]}
  ]
}
